Test results taken from article PMC12640959, “Elucidation of anti-SARS-CoV-2 and anti-inflammatory bioactives in Qingyan Dropping Pills via integrated in silico screening and bioactivity validation” (Frontiers in Medicine, 2025).
Where two headings read alike, the source gives them in different places.

How the values were obtained:
SARS-CoV-2 = system: SARS-CoV-2; design: method as in PMID 37245876; conditions: Vero E6 monolayers, noncytotoxic concentrations; cited from earlier work
[1] = target: T1, SARS-CoV-2 spike protein (S^pro) (Severe acute respiratory syndrome coronavirus 2, UniProt P0DTC2); assay: SPR assay (Biacore T200), immobilized S^pro; assay type: binding; conditions: CM5 chip, 25 °C, pH 7.4, 5% DMSO, read-out: equilibrium dissociation constant (KD), S^pro
T1 construct: purchased Sino Biological Inc. (Beijing, China)

[2] = target: SARS-CoV-2 papain-like protease (PL^pro) (Severe acute respiratory syndrome coronavirus 2, UniProt P0DTD1); assay: SPR assay (Biacore T200), immobilized PL^pro; assay type: binding
SARS-CoV-2 M^pro = SARS-CoV-2 M^pro (Severe acute respiratory syndrome coronavirus 2, UniProt P0DTD1); assay: FRET enzymatic inhibition assay on M^pro; assay type: biochemical
SARS-CoV-2 PL^pro = SARS-CoV-2 PL^pro (Severe acute respiratory syndrome coronavirus 2, UniProt P0DTD1); assay: FRET enzymatic inhibition assay on PL^pro; assay type: biochemical; conditions: for inhibition on PL^pro at 40 μM: 40 μM compound
SARS-CoV-2 Omicron BA.5 = assay: cytopathic effects (CPE) inhibition assay in Vero E6 cells; assay type: cell-based
[3] = MTT cell viability assay in RAW 264.7 cells; assay type: cell-based; conditions: mouse
Description: (§1) RAW 264.7 cells were cultured in DMEM with 10% fetal bovine serum, 100 μg/mL streptomycin, and 100 U/mL penicillin at 37 °C and supplemented with 5% CO2 and 95% air. After seeded and cultured in a 96-well plate (2 × 10^5 cells/well, 100 μL medium/well) for overnight, RAW 264.7 were treated with the tested compounds for 24 h, respectively. Then, 50 μL MTT (2.5 mg/mL) was added into each well and incubated at 37 °C for 4 h. Finally, the absorbance was recorded at 490 nm by a microplate reader to assess the cell viability.

NO = NO level in LPS-induced RAW 264.7 cells; assay type: cell-based; conditions: RAW 264.7, LPS 1 μg/mL, 24 h, vs model group, dose-dependent
Source text: (§2) NO is an essential pro-inflammatory factor, which can be not only highly expressed in cells but also promoted the expression of other inflammatory cytokines. TNF-α, IL-6, and IL-1β were considered as the main inflammatory cytokines, which were screened as the key targets in network pharmacology. So, the cytokines, including NO, TNF-α, IL-6, and IL-1β, were selected as indicators to evaluate the anti-inflammatory effects. After cultured in a 96-well plate overnight for 1 × 10^5 cells/well, RAW 264.7 cells were simultaneously treated with the tested compounds (concentration from 5 μM to 100 μM) and lipopolysaccharide (LPS) (concentration with 1 μg/mL) for 24 h. Then, the supernatant was collected to measure the cytokines levels with the corresponding assay kits, respectively.

IL-6 = IL-6 level (ELISA) in LPS-induced RAW 264.7 cells; assay type: cell-based; conditions: RAW 264.7, LPS 1 μg/mL, 24 h, vs model group
Source text: as §2

IL-1β = IL-1β level (ELISA) in LPS-induced RAW 264.7 cells; assay type: cell-based; conditions: RAW 264.7, LPS 1 μg/mL, 24 h, vs model group
Source text: as §2

TNF-α = TNF-α level (ELISA) in LPS-induced RAW 264.7 cells; assay type: cell-based; conditions: RAW 264.7, LPS 1 μg/mL, 24 h, vs model group
Source text: as §2

RdRp = system: RdRp; design: method as in PMID 33614402; conditions: cell-free and cell-based assays; cited from earlier work
in vitro = conditions: African green monkey
RAW 264.7 cells = assay: MTT cell viability assay in RAW 264.7 cells; assay type: cell-based
Description: as §1

[4] = target: SARS-CoV-2 main protease (M^pro) (Severe acute respiratory syndrome coronavirus 2, UniProt P0DTD1); assay: SPR assay (Biacore T200), immobilized M^pro; assay type: binding; conditions: CM5 chip, 25 °C, pH 7.4, 5% DMSO
[5] = rat, in vivo, po; cited from earlier work
S^pro RBD = target: S^pro RBD; design: method as in PMID 34403732; conditions: cited from earlier work
[6] = MTT, 24 h, tested up to 100 μΜ, read-out: CC50 in RAW264.7 cells

O=C1O[C@H]2[C@@H]3OC(=O)c4cc(O)c(O)c(O)c4-c4c(O)c(O)c5oc(=O)c6c(c(O)c(O)c7oc(=O)c4c5c76)-c4c(cc(O)c(O)c4O)C(=O)OC[C@H]3OC(O)[C@@H]2OC(=O)c2cc(O)c(O)c(O)c2-c2c1cc(O)c(O)c2O (mixture of isomers) [punicalagin]
virus-induced plaque formation (SARS-CoV-2): reduce

O=C(O[C@@H]1O[C@@H]2COC(=O)c3cc(O)c(O)c(O)c3-c3c(cc(O)c(O)c3O)C(=O)O[C@H]([C@H]1O)[C@@H]2O)c1cc(O)c(O)c(O)c1 [COR, corilagin]
Kd [1]: 192 nM | Kd [2]: 6.24 µM | IC50 (SARS-CoV-2 M^pro): 0.73 ± 0.05 µM | IC50 (SARS-CoV-2 PL^pro): > 100 µM | inhibition on PL^pro at 40 μM (SARS-CoV-2 PL^pro; FRET): poor inhibition | EC50 (SARS-CoV-2 Omicron BA.5; Severe acute respiratory syndrome coronavirus 2, Vero C1008, 48 h): 12.8 µM | CC50 at 24 h [3]: > 100 µM | production of NO (NO): inhibited | level of IL-6 (IL-6): significantly reduce | level of IL-1β (IL-1β): significantly reduce | level of TNF-α (TNF-α): decrease | RdRp polymerase activity (RdRp): robustly inhibiting | CC50 at 48 h (in vitro): > 100 µM

O=C(O)c1cc(O)c(O)c(O)c1 [GAL, gallic acid]
CC50 at 24 h [3, 6]: > 100 µM | production of NO (NO): inhibited | level of IL-6 (IL-6): significantly reduce | level of IL-1β (IL-1β): significantly reduce | level of TNF-α (TNF-α): decrease

C[C@H](CCC(=O)NCC(=O)O)[C@H]1CC[C@H]2[C@@H]3[C@H](O)C[C@@H]4C[C@H](O)CC[C@]4(C)[C@H]3C[C@H](O)[C@]12C [GLYCH, glycocholic acid]
cell viability of RAW264.7 cells (RAW 264.7 cells; MTT, above 40 μΜ, p < 0.05): significantly decreased | production of NO (NO): inhibited | level of IL-6 (IL-6): significantly reduce | level of IL-1β (IL-1β): significantly reduce | level of TNF-α (TNF-α): decrease

O=C(OC[C@H]1OC(O)[C@@](O)(COC(=O)c2cc(O)c(O)c(O)c2)[C@@H]1O)c1cc(O)c(O)c(O)c1 (stereo partly shown) [HAM, hamamelitannin]
Kd [1]: 93.3 nM | equilibrium dissociation constant (KD), PL^pro ([2]; SPR, CM5 chip, 25 °C, pH 7.4, 5% DMSO): negligible affinity | equilibrium dissociation constant (KD), M^pro [4]: negligible affinity | cell viability of RAW264.7 cells (RAW 264.7 cells): significantly decreased | production of NO (NO): inhibited | level of IL-6 (IL-6): significantly reduce | level of IL-1β (IL-1β): significantly reduce

O=C(/C=C/c1ccc(O[C@@H]2O[C@H](CO)[C@@H](O)[C@H](O)[C@H]2O)cc1)c1ccc(O)cc1O [ISO, isoliquiritin]
CC50 at 24 h [3, 6]: > 100 µM | production of NO (NO): inhibited | level of IL-6 (IL-6): significantly reduce | level of IL-1β (IL-1β): significantly reduce | level of TNF-α (TNF-α): decrease

C[C@@H]1O[C@@H](O[C@H]2[C@H](Oc3cc(O)c4c(=O)cc(-c5ccc(O)cc5)oc4c3)O[C@H](CO)[C@@H](O)[C@@H]2O)[C@H](O)[C@H](O)[C@H]1O [RHO, rhoifolin]
Kd [1]: 7070 nM | Kd ([2]; SPR, CM5 chip, 25 °C, pH 7.4, 5% DMSO, read-out: equilibrium dissociation constant (KD), PL^pro): 7.72 µM | IC50 (SARS-CoV-2 M^pro; FRET, 0.2 μM protein, 20 μM substrate, read-out: IC50 on M^pro): 21.6 ± 8.78 µM | IC50 (SARS-CoV-2 PL^pro; FRET, 1 μM protein, 10 μM substrate, read-out: IC50 on PL^pro): > 100 µM | inhibition on PL^pro at 40 μM (SARS-CoV-2 PL^pro; FRET): poor inhibition | CC50 at 24 h [3]: > 100 µM | production of NO (NO): inhibited | level of IL-6 (IL-6): significantly reduce | level of IL-1β (IL-1β): significantly reduce | level of TNF-α (TNF-α): decrease

Cn1cnc(Cn2c(=O)[nH]/c(=N\c3cc4cn(C)nc4cc3Cl)n(Cc3cc(F)c(F)cc3F)c2=O)n1 [S-217622, reference compound]
EC50 (SARS-CoV-2 Omicron BA.5): 0.088 µM

CC1(C)C2CCC1(C)C(O)C2 (stereo not shown) [borneol]
Tmax [5]: 20 to 25 min

O=C(O)C[C@@H]1C(=O)O[C@H]2[C@@H]3OC(=O)c4cc(O)c(O)c(O)c4-c4c(cc(O)c(O)c4O)C(=O)OC[C@H]2O[C@@H](OC(=O)c2cc(O)c(O)c(O)c2)[C@@H]3OC(=O)c2cc(O)c(O)c3c2[C@H]1[C@H](O)C(=O)O3 [chebulagic acid]
virus-induced plaque formation (SARS-CoV-2): reduce

O=C(O[C@@H]1Cc2c(O)cc(O)cc2O[C@@H]1c1cc(O)c(O)c(O)c1)c1cc(O)c(O)c(O)c1 [epigallocatechin gallate]
Kd (S^pro RBD): 11.5 µM

CC(C)=CCc1c(O)ccc(C(=O)/C=C/c2ccc(O)cc2)c1O [isobavachalcone]
Kd (S^pro RBD): 5.7 µM

O=C(/C=C/c1ccc(O)c(O)c1)O[C@@H]1C[C@](O)(C(=O)O)C[C@@H](OC(=O)/C=C/c2ccc(O)c(O)c2)[C@H]1O [isochlorogenic acid A]
Kd (S^pro RBD): 18.3 µM
